Experimental data published in ChEMBL document CHEMBL1201862, “PubChem BioAssay data set” (2004).
Calls of active or inactive are those of the source.

Columns and labels:
[1] = target: Neuropeptide Y receptor type 2 (Homo sapiens, UniProt P49146); experiment: NPY-Y2 antagonist potency, selectivity check, dose response, counter-screen for NPY-Y1 antagonist project, cell-based (AID 1278); format: functional
[2] = target: 5-hydroxytryptamine receptor 1E (Homo sapiens, UniProt P28566); experiment: Counterscreen assay for S1P3 antagonists: Dose response cell-based high throughput screening assay to identify antagonists of the 5-Hydroxytryptamine Receptor Subtype 1E (5HT1E). [Related pubchem assays: 1429, 485 ]; format: functional
Sequence of 5-hydroxytryptamine receptor 1E (P28566 whole entry): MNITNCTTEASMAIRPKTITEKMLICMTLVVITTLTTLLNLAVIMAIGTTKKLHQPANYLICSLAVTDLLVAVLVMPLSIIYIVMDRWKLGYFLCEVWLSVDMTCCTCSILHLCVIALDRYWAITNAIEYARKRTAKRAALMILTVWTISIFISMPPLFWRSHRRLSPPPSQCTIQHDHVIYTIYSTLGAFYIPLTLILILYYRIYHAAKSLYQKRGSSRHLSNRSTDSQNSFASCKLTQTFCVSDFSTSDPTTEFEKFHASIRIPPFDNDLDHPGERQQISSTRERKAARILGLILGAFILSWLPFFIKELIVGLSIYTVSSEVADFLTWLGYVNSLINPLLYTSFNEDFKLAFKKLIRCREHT

[3] = target: Sphingosine 1-phosphate receptor 3 (Homo sapiens, UniProt Q99500); experiment: Dose response cell-based high throughput screening assay for antagonists of the Sphingosine 1-Phosphate Receptor 3 (S1P3). [Related pubchem assays: 1429, 485 ]; format: functional
Sequence of Sphingosine 1-phosphate receptor 3 (Q99500 whole entry): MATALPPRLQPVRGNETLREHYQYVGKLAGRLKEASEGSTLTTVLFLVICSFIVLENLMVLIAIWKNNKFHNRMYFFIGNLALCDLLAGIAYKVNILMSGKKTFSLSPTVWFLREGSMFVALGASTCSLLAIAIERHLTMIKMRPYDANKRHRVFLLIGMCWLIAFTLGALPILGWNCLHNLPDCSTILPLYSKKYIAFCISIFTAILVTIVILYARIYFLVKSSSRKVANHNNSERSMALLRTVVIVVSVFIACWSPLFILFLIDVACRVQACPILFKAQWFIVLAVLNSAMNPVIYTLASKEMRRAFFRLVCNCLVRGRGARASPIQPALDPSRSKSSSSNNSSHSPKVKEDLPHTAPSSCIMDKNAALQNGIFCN

Galanin receptor type 2 = Galanin receptor type 2 (Homo sapiens, UniProt O43603); experiment: Dose Response cell-based high-throughput screening assay to identify antagonists of galanin receptor 2 (GALR2). [Related pubchem assays: 828, 866 ]; format: functional
Sequence of Galanin receptor type 2 (O43603 whole entry): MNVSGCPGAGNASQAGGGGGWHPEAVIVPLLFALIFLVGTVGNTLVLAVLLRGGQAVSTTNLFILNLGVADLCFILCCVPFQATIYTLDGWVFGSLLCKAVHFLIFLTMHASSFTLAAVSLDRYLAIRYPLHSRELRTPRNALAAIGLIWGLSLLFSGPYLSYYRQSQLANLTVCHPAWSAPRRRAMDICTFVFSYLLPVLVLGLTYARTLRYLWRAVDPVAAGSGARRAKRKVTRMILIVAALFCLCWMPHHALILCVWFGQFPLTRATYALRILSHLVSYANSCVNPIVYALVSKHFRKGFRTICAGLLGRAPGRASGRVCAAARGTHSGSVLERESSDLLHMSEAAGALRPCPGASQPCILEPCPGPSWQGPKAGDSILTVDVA

14-3-3 protein gamma = 14-3-3 protein gamma (Homo sapiens, UniProt P61981); experiment: modulators of 14-3-3 gamma client binding – dose response (AID 711); format: functional
Sequence of 14-3-3 protein gamma (P61981 whole entry): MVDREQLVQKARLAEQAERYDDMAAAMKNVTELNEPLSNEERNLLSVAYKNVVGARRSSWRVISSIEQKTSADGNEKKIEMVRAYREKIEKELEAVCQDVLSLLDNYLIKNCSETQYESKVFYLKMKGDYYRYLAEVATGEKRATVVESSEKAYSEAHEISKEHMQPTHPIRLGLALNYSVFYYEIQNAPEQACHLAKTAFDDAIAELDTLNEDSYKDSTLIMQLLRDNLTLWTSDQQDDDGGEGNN

Troponin, cardiac muscle = Troponin, cardiac muscle (Homo sapiens, UniProt P19429+P45379+P63316); experiment: Fluorescence-based biochemical high throughput dose response assay for activators of the calcium sensitivity of cardiac Regulated Thin Filaments (RTF). [Related pubchem assays (depositor defined):AID493008, AID493018, AID504382, AID504383]; format: protein-complex assay
[4] = inhibitors of Bluetongue virus cytopathic effect, confirmation, arbovirus, BSR cells (AID 1250); format: functional;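 note: protection from viral cytopathic effect measured as cell viability by ATP luminescence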
[5] = target: T1, Low molecular weight phosphotyrosine protein phosphatase (Homo sapiens, UniProt P24666); experiment: LMPTP phosphatase inhibitors, dose response, biochemical, OMFP substrate, fluorescence intensity, set 2 (AID 743307); format: functional
T1 sequence (P24666 whole entry): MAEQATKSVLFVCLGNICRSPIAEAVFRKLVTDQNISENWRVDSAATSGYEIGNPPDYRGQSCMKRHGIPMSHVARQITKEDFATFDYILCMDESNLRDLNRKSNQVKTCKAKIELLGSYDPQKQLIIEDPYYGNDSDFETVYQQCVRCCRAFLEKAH

[6] = target: T1, Low molecular weight phosphotyrosine protein phosphatase; experiment: LMPTP phosphatase inhibitors, colorimetric pNPP readout, dose response, orthogonal assay, biochemical, absorbance, pNPP substrate, LMPTP-A isoform, set 2 (AID 743308); format: functional
[7] = target: Peroxisome proliferator-activated receptor gamma/Nuclear receptor corepressor 2 (Homo sapiens, UniProt P37231+Q9Y618); experiment: Counterscreen for NR2E3 inverse agonists: TR-FRET-based biochemical high throughput dose response assay to identify inverse agonists of the interaction between peroxisome proliferator-activated receptor gamma (PPARg) and nuclear receptor co-repressor 2 (NCOR2).; format: functional
[8] = target: Photoreceptor-specific nuclear receptor (Homo sapiens, UniProt Q9Y5X4); experiment: NR2E3 inverse agonists, dose response, biochemical, TR-FRET (AID 463256); format: functional
Sequence of Photoreceptor-specific nuclear receptor (Q9Y5X4 whole entry): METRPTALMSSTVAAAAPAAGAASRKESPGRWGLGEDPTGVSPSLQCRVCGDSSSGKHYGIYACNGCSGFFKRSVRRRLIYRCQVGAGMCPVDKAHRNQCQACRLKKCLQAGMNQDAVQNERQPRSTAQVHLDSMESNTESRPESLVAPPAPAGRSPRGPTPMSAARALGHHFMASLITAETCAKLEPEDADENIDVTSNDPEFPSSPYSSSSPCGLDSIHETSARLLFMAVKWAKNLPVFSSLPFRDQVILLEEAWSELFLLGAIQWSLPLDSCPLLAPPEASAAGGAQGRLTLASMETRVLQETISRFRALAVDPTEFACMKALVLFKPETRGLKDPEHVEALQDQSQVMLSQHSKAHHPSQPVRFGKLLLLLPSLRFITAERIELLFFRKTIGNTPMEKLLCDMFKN

[9] = system: Streptococcus sp. 'group A'; experiment: growth inhibition of control SK(-) GAS strain, dose response, counter-screen for streptokinase expression inhibitor project, luminescence, kanamycin, BacTiterGlo, confirmation (AID 1900); format: functional, organism-based
[10] = enhancers of respiration in Yfh1-depleted yeast, dose response, Friedreich's ataxia, plus single-dose screen (AID 1465); format: functional;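 note: yeast depleted of Yfh1p frataxin homolog grown on glycerol needing respiration; WST-1 tetrazolium dye reduction as measure of cellular dehydrogenase metabolic activity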
Streptococcus = experiment: Group A Streptococcus viability loss, dose response, counter-screen for streptokinase expression inhibitor project, luminescence, BacTiterGlo (AID 1915); format: functional, organism-based;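 note: potency for reduction of bacterial viability or growth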
Nonstructural protein 1 = Nonstructural protein 1 (Influenza A virus, UniProt Q194T2); format: functional, Influenza A virus (A/California/07/2009(H1N1))
Sequence of Nonstructural protein 1 (Q194T2 whole entry): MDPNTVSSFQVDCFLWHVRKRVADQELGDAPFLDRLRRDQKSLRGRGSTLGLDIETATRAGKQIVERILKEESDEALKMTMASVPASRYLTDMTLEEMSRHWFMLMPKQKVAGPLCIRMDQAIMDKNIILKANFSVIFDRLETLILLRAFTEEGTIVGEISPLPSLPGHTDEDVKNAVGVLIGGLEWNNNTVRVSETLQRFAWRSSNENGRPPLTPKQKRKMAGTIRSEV

Oxytocin receptor = Oxytocin receptor (Homo sapiens, UniProt P30559); experiment: Fluorescence-based cell-based high throughput dose response assay for potentiators of Oxytocin Receptor (OXTR). [Related pubchem assays: 434985 (Confirmation screen (OXTR potentiators in triplicate)), 2481 (Summary (OXTR potentiators)), 2445 (Primary screen (OXTR potentiators in singlicate))]; format: functional
Sequence of Oxytocin receptor (P30559 whole entry): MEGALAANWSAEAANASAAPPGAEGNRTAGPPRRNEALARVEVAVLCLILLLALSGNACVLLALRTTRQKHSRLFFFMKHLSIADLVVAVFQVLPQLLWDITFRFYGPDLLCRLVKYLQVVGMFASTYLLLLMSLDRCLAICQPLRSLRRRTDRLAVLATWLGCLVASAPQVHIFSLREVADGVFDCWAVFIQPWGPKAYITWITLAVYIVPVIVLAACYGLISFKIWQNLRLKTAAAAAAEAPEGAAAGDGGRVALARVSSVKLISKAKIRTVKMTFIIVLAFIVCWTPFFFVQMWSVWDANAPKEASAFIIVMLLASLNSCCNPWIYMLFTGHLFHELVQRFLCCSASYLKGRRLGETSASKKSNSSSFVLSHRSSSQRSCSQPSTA

[11] = target: Voltage-gated inwardly rectifying potassium channel KCNH2 (Homo sapiens, UniProt Q12809); experiment: hERG protection from proarrhythmic block, potency, dose response, cell-based, thallium flux (AID 2121); format: ADME
Sequence of Voltage-gated inwardly rectifying potassium channel KCNH2 (Q12809 whole entry): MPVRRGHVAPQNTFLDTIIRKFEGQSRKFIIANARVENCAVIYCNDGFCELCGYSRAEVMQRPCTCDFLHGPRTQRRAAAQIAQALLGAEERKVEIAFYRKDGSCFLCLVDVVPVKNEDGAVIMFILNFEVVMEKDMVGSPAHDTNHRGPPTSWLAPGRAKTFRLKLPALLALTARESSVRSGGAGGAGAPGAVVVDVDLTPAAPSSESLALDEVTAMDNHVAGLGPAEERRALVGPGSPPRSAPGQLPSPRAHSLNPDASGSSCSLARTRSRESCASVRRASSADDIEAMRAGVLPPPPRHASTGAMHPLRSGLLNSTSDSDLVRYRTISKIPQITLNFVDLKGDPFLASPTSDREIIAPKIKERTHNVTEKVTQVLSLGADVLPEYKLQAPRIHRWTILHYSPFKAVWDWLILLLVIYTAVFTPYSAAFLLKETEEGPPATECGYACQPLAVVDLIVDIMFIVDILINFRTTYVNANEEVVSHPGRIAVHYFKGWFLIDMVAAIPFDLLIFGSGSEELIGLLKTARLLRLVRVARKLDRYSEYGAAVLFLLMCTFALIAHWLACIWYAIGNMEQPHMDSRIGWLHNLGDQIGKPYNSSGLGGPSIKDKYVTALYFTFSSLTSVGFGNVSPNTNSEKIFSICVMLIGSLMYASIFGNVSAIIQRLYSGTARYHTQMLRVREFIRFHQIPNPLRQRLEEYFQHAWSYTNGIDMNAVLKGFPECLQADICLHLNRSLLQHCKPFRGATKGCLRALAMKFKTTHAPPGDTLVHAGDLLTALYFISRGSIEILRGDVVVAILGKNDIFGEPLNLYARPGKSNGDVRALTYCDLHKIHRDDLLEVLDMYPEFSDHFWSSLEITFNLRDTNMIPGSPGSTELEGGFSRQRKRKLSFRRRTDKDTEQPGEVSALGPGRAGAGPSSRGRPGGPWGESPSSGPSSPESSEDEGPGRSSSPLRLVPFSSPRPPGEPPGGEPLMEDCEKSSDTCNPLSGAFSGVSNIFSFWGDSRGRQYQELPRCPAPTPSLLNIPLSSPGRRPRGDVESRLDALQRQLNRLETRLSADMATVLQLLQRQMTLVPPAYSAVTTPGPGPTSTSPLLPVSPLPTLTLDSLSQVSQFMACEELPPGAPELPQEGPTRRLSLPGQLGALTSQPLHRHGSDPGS

[12] = target: Tyrosyl-DNA phosphodiesterase 2 (Homo sapiens, UniProt O95551); experiment: human TDP2 enzyme inhibitors, dose response, biochemical, epi absorbance, IC50 (AID 743297)
Leucine aminopeptidase = target: T2, Leucine aminopeptidase (Plasmodium falciparum 3D7, UniProt Q8IL11); experiment: P. falciparum M17LAP inhibitors, primary screen, biochemical, fluorogenic H-Leu-NHMec substrate, 1536-well (AID 1619); format: functional
T2 sequence (Q8IL11 whole entry): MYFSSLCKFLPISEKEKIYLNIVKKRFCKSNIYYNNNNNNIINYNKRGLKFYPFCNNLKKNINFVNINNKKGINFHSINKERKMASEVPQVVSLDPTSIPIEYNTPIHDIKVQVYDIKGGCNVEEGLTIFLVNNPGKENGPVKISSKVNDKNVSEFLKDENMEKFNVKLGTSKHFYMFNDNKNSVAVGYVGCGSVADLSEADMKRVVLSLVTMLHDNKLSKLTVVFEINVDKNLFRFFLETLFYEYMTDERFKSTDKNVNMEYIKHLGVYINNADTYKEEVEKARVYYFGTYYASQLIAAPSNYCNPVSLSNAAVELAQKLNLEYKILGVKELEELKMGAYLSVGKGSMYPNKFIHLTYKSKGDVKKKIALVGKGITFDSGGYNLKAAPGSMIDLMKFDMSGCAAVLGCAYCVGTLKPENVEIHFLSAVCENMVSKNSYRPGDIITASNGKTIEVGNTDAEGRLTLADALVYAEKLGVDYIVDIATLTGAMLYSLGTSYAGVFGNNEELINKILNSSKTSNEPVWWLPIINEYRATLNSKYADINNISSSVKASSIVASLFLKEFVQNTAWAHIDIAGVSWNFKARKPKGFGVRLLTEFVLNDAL

Aspartyl aminopeptidase = Aspartyl aminopeptidase (Plasmodium falciparum 3D7, UniProt Q8I2J3); experiment: Counterscreen for inhibitors of M1 and M17 aminopeptidases: QFRET-based biochemical high throughput dose response assay for inhibitors of the Plasmodium falciparum M18 Aspartyl Aminopeptidase (PFM18AAP). [Related PubChem assays: 1619 (Screening assay (M17LAP inhibitors).), 1445 (Screening assay (M1AAP inhibitors).)]
Sequence of Aspartyl aminopeptidase (Q8I2J3 whole entry): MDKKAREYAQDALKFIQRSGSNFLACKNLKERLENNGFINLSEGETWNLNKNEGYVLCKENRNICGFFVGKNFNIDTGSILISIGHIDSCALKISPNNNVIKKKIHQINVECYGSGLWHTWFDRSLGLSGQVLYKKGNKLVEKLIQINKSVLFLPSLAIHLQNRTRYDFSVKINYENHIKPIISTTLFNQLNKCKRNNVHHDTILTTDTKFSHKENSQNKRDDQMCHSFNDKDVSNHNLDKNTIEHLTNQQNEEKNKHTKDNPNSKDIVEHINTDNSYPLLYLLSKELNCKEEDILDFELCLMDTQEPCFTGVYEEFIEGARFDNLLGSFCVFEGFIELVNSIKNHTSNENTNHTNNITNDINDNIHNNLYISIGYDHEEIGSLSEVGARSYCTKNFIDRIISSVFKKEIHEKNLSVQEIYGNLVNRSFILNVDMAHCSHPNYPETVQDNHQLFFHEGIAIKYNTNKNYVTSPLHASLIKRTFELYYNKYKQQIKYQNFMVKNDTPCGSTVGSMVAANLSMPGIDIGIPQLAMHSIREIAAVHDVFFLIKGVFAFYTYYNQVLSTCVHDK

Procathepsin L = Procathepsin L (Homo sapiens, UniProt P07711); experiment: cathepsin L inhibitors, dose response, counter-screen for M1/M17 aminopeptidase inhibitor project, biochemical, QFRET, 1536-well (AID 2214)
Sequence of Procathepsin L (P07711 whole entry): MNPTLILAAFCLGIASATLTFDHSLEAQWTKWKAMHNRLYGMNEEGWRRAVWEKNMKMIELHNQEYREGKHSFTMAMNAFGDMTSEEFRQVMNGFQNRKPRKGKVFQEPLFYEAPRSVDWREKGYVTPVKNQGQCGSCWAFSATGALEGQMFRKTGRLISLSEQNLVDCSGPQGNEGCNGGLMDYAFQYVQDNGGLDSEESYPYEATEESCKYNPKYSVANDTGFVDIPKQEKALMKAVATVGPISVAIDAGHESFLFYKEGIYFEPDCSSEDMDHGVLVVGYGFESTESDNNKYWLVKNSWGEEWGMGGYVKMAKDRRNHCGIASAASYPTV

[13] = Late stage counterscreen results from the probe development effort to identify activators of signal transducer and activator of transcription 1 (STAT1): luminescence-based cell-based dose response assay to identify cytotoxic compounds.; format: functional
[14] = M. tuberculosis growth inhibition, HTS (AID 449762); format: functional
Bcl-2-related protein A1 [15] = target: T3, Bcl-2-related protein A1 (Mus musculus, UniProt Q07440); experiment: Bfl-1 inhibitors blocking BH3 peptide binding, confirmation, biochemical, TR-FRET, mouse Bfl-1 (AID 621);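 note: TR-FRET binding of GST-Bfl-1 to FITC-labelled Bid peptide via terbium antibody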
T3 sequence (Q07440 whole entry): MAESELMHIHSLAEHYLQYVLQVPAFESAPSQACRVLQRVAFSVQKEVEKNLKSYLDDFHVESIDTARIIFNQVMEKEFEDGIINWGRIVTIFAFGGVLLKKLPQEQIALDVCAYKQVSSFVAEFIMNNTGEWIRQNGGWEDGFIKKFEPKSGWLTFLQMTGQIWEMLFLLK

Bcl-2-related protein A1 [16] = target: T3, Bcl-2-related protein A1; experiment: Bfl-1 binding inhibitors, SAR follow-up, biochemical, fluorescence polarization (AID 1070)
[17] = growth suppression of PTEN-null colon cells, dose response, cell-based, HCT116 PTEN knockout (AID 1047); format: functional;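 note: HCT116 colon tumor cells with PTEN knocked out; cells exposed to compound for 60 hours before readout; potency for loss of cell viability measured by luminescence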
[18] = growth suppression of beta-catenin-knockout colon cells, dose response, cell-based, HCT116, human colon tumor (AID 1045); format: functional;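 note: HCT116 colon tumor cells with beta catenin knocked out; cells exposed to compound for 60 hours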
[19] = target: Heat shock protein HSP 90-alpha (Homo sapiens, UniProt P07900); format: functional, organism-based
[20] = Concentration-dependent survival of SW480 colon cancer line, luminescence detection with CellTiter-Glo, half-maximal inhibitory concentration (AID 1117338); format: functional
[21] = RKO cell viability reduction, dose response, CellTiter-Glo luminescence (AID 1117322); format: functional
[22] = cytotoxicity toward HCT116 cells – cell-based, CellTiter-Glo luminescence, IC50, dose response (AID 1117332); format: functional; conditions: HCT-116
[23] = SNU-C1 cell viability reduction, dose response, CellTiter-Glo luminescence (AID 1117323); format: functional, cell-based
[24] = half-maximal inhibitory concentration for glucagon-like peptide-1 release, STC-1 cell line, dose-response (AID 1117345); format: functional, cell-based
[25] = cytotoxicity toward Colo320 cells – cell-based, CellTiter-Glo luminescence, IC50, dose response (AID 1117334); format: functional; conditions: COLO 320
[26] = cytotoxicity toward HT-29 cells – cell-based, CellTiter-Glo luminescence, IC50, dose response (AID 1117330); format: functional
[27] = CellTiter-Glo luminescent dose response of DLD-1 viability loss (AID 1117352); format: functional
[28] = Glucagon-like peptide 1 release potency, NCI-H716 cell line, dose-response, half-maximal inhibitory concentration (AID 1117344); format: functional, cell-based

Sequence of Neuropeptide Y receptor type 2 (P49146 whole entry): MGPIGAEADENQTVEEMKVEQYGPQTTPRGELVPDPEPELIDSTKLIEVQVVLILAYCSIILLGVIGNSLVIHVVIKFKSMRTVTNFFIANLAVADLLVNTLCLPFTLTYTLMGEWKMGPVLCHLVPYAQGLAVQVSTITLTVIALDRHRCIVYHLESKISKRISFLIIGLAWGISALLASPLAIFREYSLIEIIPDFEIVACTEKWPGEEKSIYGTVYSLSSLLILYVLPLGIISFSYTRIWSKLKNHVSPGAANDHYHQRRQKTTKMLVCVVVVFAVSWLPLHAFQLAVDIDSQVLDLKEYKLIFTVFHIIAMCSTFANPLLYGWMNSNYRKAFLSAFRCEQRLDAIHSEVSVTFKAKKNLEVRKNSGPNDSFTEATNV

Cc1cc(C(=O)CSc2nc3ccccc3c(=O)n2C)c(C)n1CC1CCCO1 (centres undefined)
IC50 [1]: > 35 µM (not active) | IC50 [2]: > 50 µM (not active) | IC50 [3]: > 50 µM (not active)

c1ccc2c3nc[nH]c(NCC4CCCO4)c-3nc2c1 (centres undefined)
IC50 (Galanin receptor type 2): > 42 µM (not active)

COc1ncnc2c1N=C1CC(C)(C)CC(N)=C1S2
IC50 (14-3-3 protein gamma): 30 µM (active) | EC50 (Troponin, cardiac muscle): > 7.94 µM (active)

CCOc1ccc(-n2c(SCC(=O)Nc3cc(OC)c([N+](=O)[O-])cc3C)nc3ccccc32)cc1
IC50 [4]: 43 µM (active)

c1ccc(-c2cc(SCCCN3CCCCC3)c3ccccc3n2)cc1
IC50 [5]: 66.9 µM (inactive) | IC50 [6]: > 80 µM (inactive)

COc1ccc(NC(=O)CSc2nnc(-c3cccs3)n2-c2ccccc2)cc1
IC50 [7]: 2.16 µM (active) | IC50 [8]: 2.09 µM (active)

COc1cc([N+](=O)[O-])cc(/C=N/NC(=O)c2ccc(C)nc2)c1O
EC50 [9]: 2.62 µM (active) | EC50 [10]: > 100 µM (active) | EC50 (Streptococcus): 2.22 µM (active) | IC50 (Nonstructural protein 1): 5.49 µM (active)

CCOc1ccc(-c2c(C(=O)N/N=C/c3ccc(Cl)cc3)nnn2-c2nonc2N)cc1
EC50 (Oxytocin receptor): > 29.9 µM (not active)

CCOC(=O)C1=C(Cc2ccc(C)cc2)C(=O)c2ccccc2C1=O
EC50 [9]: 6.54 µM (active) | EC50 [11]: 4.1 µM (active) | EC50 (Streptococcus): 6.91 µM (active) | IC50 [12]: > 128 µM (inactive)

N#Cc1c(NC(=O)C2CC=CCC2C(=O)O)sc2c1CCCCCC2 (centres undefined)
IC50 (Leucine aminopeptidase): < 1 µM (active) | IC50 (Aspartyl aminopeptidase): > 73.5 µM (not active) | IC50 (Procathepsin L): > 59.6 µM (not active)

Cc1nnc(SCC(=O)Nc2ccc(-c3nc4ccccc4s3)cc2)s1
IC50 [13]: > 55.7 µM (not active)

Cn1nnc(NC(=S)NC(=O)c2ccc(-c3ccc(Br)cc3)o2)n1
IC50 [14]: > 100 µM (active)

Clc1ccc(-n2nnc(-c3cccnc3Cl)n2)cn1
IC50 (Bcl-2-related protein A1 [15]): > 100 µM (not active) | IC50 (Bcl-2-related protein A1 [16]): > 100 µM (not active)

Oc1ccc(Cl)cc1Cc1cc(Cl)ccc1O [DICHLOROPHEN]
EC50 [17]: 15.7 µM (active) | EC50 [18]: 16.4 µM (active) | AC50 [19]: 8 µM (active) | IC50 [20]: 2.5 µM (active) | IC50 [21]: 1.93 µM (active) | IC50 [22]: 1.55 µM (active) | IC50 [23]: 0.546 µM (active) | IC50 [24]: > 40 µM (inactive) | IC50 [25]: 1.21 µM (active) | IC50 [26]: 4.69 µM (active) | IC50 [27]: 0.862 µM (active) | IC50 [28]: 15.6 µM (inactive)
